This passage reports TGI results from PubChem BioAssay (NCI).

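All cell lines were grown in 96-well plates and treated with compound for 48 hours. TGI: total growth inhibition.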

Some test systems named below: HT29 colon; SF-295 CNS; NCI-H226 lung; SF-539 CNS; COLO 205 colon; SK-MEL-5 melanoma; RPMI-8226 leukemia; BT-549 breast; NCI-H23 lung; HCC-2998 colon.
Assay in all cases: NCI tumour cell line growth inhibition, 48 h

In the case of `CC1CC/C(=C\c2ccc(F)cc2)C2=C1C(c1ccc(F)cc1)NC(=S)N2` (stereo not given), the TGI in the assay with HT29 colon, with SF-295 CNS, with NCI-H226 lung, in the assay on SF-539 CNS, in the assay on COLO 205 colon and with SK-MEL-5 melanoma was over 100 µM throughout. The TGI in the assay on RPMI-8226 leukemia, with BT-549 breast and in the assay with NCI-H23 lung was over 100 µM throughout.

Take `CN(C)CCSc1nccc(-c2ccc(-c3ccnc(SCCN(C)C)n3)s2)n1`: the TGI with HT29 colon is 10.3 µM; in the assay on SF-295 CNS, 26 µM; with NCI-H226 lung, 27.7 µM; with SF-539 CNS, 20.4 µM; with COLO 205 colon, 21.7 µM; in the assay on HCC-2998 colon, 18.6 µM. The TGI with SK-MEL-5 melanoma turned out to be 31 µM; in the assay on RPMI-8226 leukemia, 10.1 µM; with NCI-H23 lung, 28.3 µM.

On to `Cc1nc2cccc(F)c2c(=O)n1-c1nnc(C2CC2)s1`, for which the TGI with HT29 colon, in the assay with SF-295 CNS, with NCI-H226 lung, in the assay with SF-539 CNS, in the assay on COLO 205 colon and with HCC-2998 colon was over 10 µM each time. Further, the TGI in the assay on SK-MEL-5 melanoma, in the assay on RPMI-8226 leukemia and in the assay with NCI-H23 lung was over 10 µM in each case.

As for `CC1CN=C(N(C(=O)Nc2ccccc2)C2CCCCC2)S1` (stereo not given), the TGI amounted to 32.9 µM in the assay with HT29 colon; 31.8 µM with SF-295 CNS; 43.2 µM in the assay with SF-539 CNS; 37 µM in the assay on COLO 205 colon; 34.6 µM in the assay on HCC-2998 colon; 28.4 µM in the assay with SK-MEL-5 melanoma. Further, the TGI in the assay on RPMI-8226 leukemia turned out to be 49.7 µM; with NCI-H23 lung, 33.8 µM.

In the case of `N#CC(NNC(=O)c1c(Cl)c(Cl)c(Cl)c(Cl)c1-c1nc2ccc(C(=O)c3ccccc3)cc2[nH]1)c1cccc(Oc2ccccc2)c1` (stereo not given), the TGI with HT29 colon was over 100 µM; in the assay with SF-295 CNS, 96.6 µM; with NCI-H226 lung it was 53.1 µM; in the assay on SF-539 CNS it was 43.4 µM; in the assay with COLO 205 colon, 46.1 µM; with SK-MEL-5 melanoma, 38.5 µM. The TGI was 91.8 µM with RPMI-8226 leukemia, 64.8 µM with BT-549 breast and 90.9 µM in the assay on NCI-H23 lung.

For the compound `O=S1(=O)OCCOS(=O)(=O)C1S(=O)(=O)c1cccc2ccccc12`, the TGI with HT29 colon, with SF-295 CNS, in the assay with COLO 205 colon, in the assay with HCC-2998 colon, in the assay with SK-MEL-5 melanoma and in the assay with RPMI-8226 leukemia was over 100 µM each time. Also, the TGI with BT-549 breast and in the assay with NCI-H23 lung was over 100 µM each time.

On to `CC(C)(C)C1=CC(O)(c2c3ccccc3c(C3(O)C=C(C(C)(C)C)C(=O)C(C(C)(C)C)=C3)c3ccccc23)C=C(C(C)(C)C)C1=O`, for which the TGI with HT29 colon, in the assay with SF-295 CNS, in the assay with NCI-H226 lung, with SF-539 CNS, with COLO 205 colon and with SK-MEL-5 melanoma was over 100 µM throughout. Besides, the TGI with RPMI-8226 leukemia, with BT-549 breast and in the assay with NCI-H23 lung was over 100 µM in each case.

Consider `CC(=O)c1nc(C#N)c(N)o1`, for which the TGI in the assay with HT29 colon, in the assay on SF-295 CNS, in the assay with NCI-H226 lung, in the assay on SF-539 CNS, in the assay on COLO 205 colon and in the assay with HCC-2998 colon was over 100 µM in each case. Besides, the TGI with RPMI-8226 leukemia and in the assay with NCI-H23 lung was over 100 µM in each case.

For the compound `CCOC(=O)CCN1C(=O)c2c(NC(=O)C(=O)O)cccc2S1(=O)=O`, the TGI in the assay with HT29 colon, in the assay with SF-295 CNS, in the assay with NCI-H226 lung, in the assay with COLO 205 colon, with HCC-2998 colon and with RPMI-8226 leukemia was over 100 µM each time. In addition, the TGI with BT-549 breast and in the assay with NCI-H23 lung was over 100 µM throughout.

Take `Cc1cnc2cc(Cl)ccc2c1SCC(=O)O`: the TGI in the assay with HT29 colon, with SF-295 CNS, in the assay on NCI-H226 lung, with SK-MEL-5 melanoma, in the assay with RPMI-8226 leukemia and with BT-549 breast was over 100 µM in each case. The same compound yielded a TGI in the assay on NCI-H23 lung of over 100 µM.

For `CCOC(=O)C1=C(C)N(c2ccc(Cl)cc2)C2(O)C=CC(=O)C3C(=O)N(c4ccccc4)C(=O)C132` (stereo not given), the TGI with HT29 colon worked out at 3.18 µM; with SF-295 CNS, 5.25 µM; with SF-539 CNS it was 9.4 µM; in the assay on COLO 205 colon, 3.26 µM; with SK-MEL-5 melanoma, 3.47 µM; in the assay with RPMI-8226 leukemia, 3.77 µM. The TGI with BT-549 breast was 5.8 µM; in the assay with NCI-H23 lung, 4.75 µM.

As for `CCOC(=O)c1sc2[n+](c1C)C(=O)/C(=C/c1ccccc1Cl)S2`, the TGI in the assay with HT29 colon is 28.9 µM; in the assay on SF-295 CNS, 4.75 µM; in the assay with NCI-H226 lung, 23.1 µM; in the assay on SF-539 CNS, 15.2 µM; with COLO 205 colon, 9.85 µM; in the assay on SK-MEL-5 melanoma it was 1.89 µM. Also, the TGI came out at 15.7 µM in the assay on RPMI-8226 leukemia and 27.7 µM in the assay with NCI-H23 lung.

For `O=C(c1cccs1)N(C(=O)N1CCCCC1)c1ccccc1`, the TGI with HT29 colon, in the assay with SF-295 CNS, in the assay on NCI-H226 lung, in the assay on SF-539 CNS, with COLO 205 colon and in the assay on SK-MEL-5 melanoma was over 100 µM throughout. The TGI in the assay on RPMI-8226 leukemia, in the assay on BT-549 breast and with NCI-H23 lung was over 100 µM throughout.

`COc1nc2ncc([C@@H](O)[C@H](O)CO)nc2c(=O)[nH]1`: the TGI in the assay on HT29 colon, in the assay on SF-295 CNS, in the assay on NCI-H226 lung, in the assay with SF-539 CNS, in the assay with COLO 205 colon and with SK-MEL-5 melanoma was over 100 µM each time. The TGI with RPMI-8226 leukemia and in the assay with BT-549 breast was over 100 µM throughout.

For `Clc1ccc(C2=NNC(c3cccc(Cl)c3)C2)cc1` (stereo not given), the TGI is over 100 µM in the assay with HT29 colon; 92.6 µM with SF-295 CNS; over 100 µM with NCI-H226 lung; over 100 µM in the assay with SF-539 CNS; 29.3 µM in the assay on COLO 205 colon; 28.1 µM in the assay with SK-MEL-5 melanoma. Also, the TGI is 41 µM with RPMI-8226 leukemia and over 100 µM with NCI-H23 lung.
